{"source": "patent US20120157401A1", "about": "“METHODS FOR TREATING NEUROFIBROMATOSIS” (PTC Therapeutics, Inc., priority 2009, published 2012)", "key": {"[1]": {"system": "SKNEP orthotopic xenografts", "assay": "Orthotopic SKNEP Ewing sarcoma tumor model (kidney capsule): tumor weight", "type": "in vivo, athymic nude mice", "details": "5 weeks of treatment", "description": "Experimental Design. In orthotopic tumor models, human tumor cells are implanted into the mouse in an organ that corresponds to the location from which the tumors arise. Such models may provide a better predictor of clinical efficacy than injection of tumors into the flanks of nude mice. See Hoffman, Invest. New Drugs 1999, 17(4):343-59. SY5Y neuroblastoma or SKNEP Ewing sarcoma tumor cells (1×10^6 cells/mouse) were implanted into the kidney capsule of female athymic nude mice according to published methods. See Huang et al., Proc. Natl. Acad. Sci. USA 2003, 100(13):7785-90. One week after implantation of each type of tumor, mice were divided into 2 groups and were administered a test Compound as shown in Table 21.\nAfter 5 weeks of treatment, the mice were sacrificed, and the weights of the tumors were assessed."}, "[2]": {"assay": "Functional observation battery, 7 days oral gavage", "type": "in vivo, Sprague Dawley rats", "details": "40, 120, and 400 mg/kg daily for 7-days"}}}
{"smiles": "COc1ccc(C2c3[nH]c4ccc(Cl)cc4c3CCN2C(=O)Oc2ccc(Cl)cc2)cc1", "note": "(racemic) [Compound #10]", "values": [{"measurement": "Growth of orthotopic SKNEP tumors (tumor weight)", "setting": "[1]", "result": "completely prevented growth"}, {"measurement": "Behavioral or neurological effects", "setting": "[2]", "result": "no adverse behavioral or neurological effects"}]}
